These results are taken from patent US20250228239A1, “MOLECULES HAVING PESTICIDAL UTILITY, AND INTERMEDIATES, COMPOSITIONS, AND PROCESSES, RELATED THERETO” (priority 2024, published 2025).

SMILES strings stand for the structures. Where two headings read alike, the source gives them in different places.

Holding throughout (format): in vivo
The subject of experiment [1] is Beet Armyworm (Spodoptera exigua, LAPHEG). The experiment is described as follows: Bioassays on Beet Armyworm (BAW), 128-well diet tray assay. The settings on record: Spodoptera exigua. The method, boiled down:
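Second-instar larvae, one to five per well, were placed on artificial diet surface-treated with 50 μg/cm^2 compound in 90:10 acetone-water, eight wells per treatment. Trays were held 5–7 days at 25 °C, 14:10 light-dark. Percent mortality per well was averaged over eight wells.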

Experiment [2] relates to Yellow Fever Mosquito (Aedes aegypti, AEDSAE). The settings on record: for YFM rating: Table ABC / ABC-DP rating. The method, boiled down: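 Compounds from 4000 ppm DMSO stocks were diluted in 90:10 water/acetone and dispensed into wells, then infested with about 1-day-old larvae in liver-powder water. Covered plates were held at room temperature for 3 days and each well was scored for mortality against a rating scale; six replicate plates per compound.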

The test system of experiment [3] is Cabbage Looper (Trichoplusia ni, TRIPNI). As to the kind of experiment: Bioassays on Cabbage Looper (CL), 128-well diet tray assay. The settings on record: Trichoplusia ni. The essentials:
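Diet tray, 2nd instar, 1–5 larvae/well; 50 μg/cm^2 compound surface-applied (acetone:water 90:10), dried; 8 wells/treatment; 25° C, 14:10 L:D, 5–7 d; % mortality, mean of 8 wells.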

Where [4] appears, read: Beet Armyworm, Table ABC / ABC-DP rating, read-out: BAW rating.
The mark [5] stands for this setting: Cabbage Looper, Table ABC / ABC-DP rating, read-out: CL rating.
[6] abbreviates: Table ABC: Biological Results, species BAW, read-out: BAW.
The mark [7] stands for this setting: Table ABC: Biological Results, species YFM.
The mark [8] stands for this setting: Table ABC: Biological Results, species CL, read-out: CL.
Setting [9] is: Beet Armyworm, rating class, read-out: BAW.
Where [10] appears, read: Yellow Fever Mosquito, rating class.
The mark [11] stands for this setting: Cabbage Looper, rating class, read-out: CL.

On to `CN(C)CC(=O)NNC(=O)c1cc(NC(=O)[C@H]2[C@H](c3cc(Cl)cc(Cl)c3)C2(Cl)Cl)ccc1Cl` (relative stereo) [F2530, trans-2,2-Dichloro-N-(4-chloro-3-(2-(dimethylglycyl)hydrazine-1-carbonyl)phenyl)-3-(3,5-dichlorophenyl)cyclopropane-1-carboxamide], for which the pest or weed control at 50 µg/cm2 in experiment [1] (setting [4]) and in experiment [3] (setting [5]) was 50 to 100% throughout. The YFM rating entry in experiment [2] (Yellow Fever Mosquito) was “A (80–100)”.

Turning to `N#CC1(C(=O)NNC(=O)c2cc(NC(=O)[C@H]3[C@H](c4cc(Cl)cc(Cl)c4)C3(Cl)Cl)ccc2Cl)CC1` (relative stereo) [F2518, trans-2,2-Dichloro-N-(4-chloro-3-(2-(1-cyanocyclopropane-1-carbonyl)hydrazine-1-carbonyl)phenyl)-3-(3,5-dichlorophenyl)cyclopropane-1-carboxamide], the pest or weed control at 50 µg/cm2 in experiment [1] (setting [4]) and in experiment [3] (setting [5]) was 50 to 100% in each case. In addition, the YFM rating entry in experiment [2] (Yellow Fever Mosquito) is listed as “A (80–100)”.

As for `CCCC(=O)Nc1c(F)ccc(NC(=O)c2cc(NC(=O)[C@H]3[C@H](c4cc(C(F)(F)F)cc(C(F)(F)F)c4)C3(Cl)Cl)ccc2Cl)c1F` (relative stereo) [F1806, trans-5-(3-(3,5-bis(Trifluoromethyl)phenyl)-2,2-dichlorocyclopropane-1-carboxamido)-N-(3-butyramido-2,4-difluorophenyl)-2-chlorobenzamide], the pest or weed control at 50 µg/cm2 in experiment [1] (setting [4]) and in experiment [3] (setting [5]) was 50 to 100% each time. Moreover, the YFM rating entry in experiment [2] (Yellow Fever Mosquito) is “A (80–100)”.

Consider `O=C(Nc1ccc(F)c(NC(=O)C(F)(F)C(F)(F)C(F)(F)F)c1F)c1cc(NC(=O)[C@H]2[C@H](c3cc(C(F)(F)F)cc(C(F)(F)F)c3)C2(Cl)Cl)ccc1Cl` (relative stereo) [F1825, trans-5-(3-(3,5-bis(Trifluoromethyl)phenyl)-2,2-dichlorocyclopropane-1-carboxamido)-2-chloro-N-(2,4-difluoro-3-(2,2,3,3,4,4,4-heptafluorobutanamido)phenyl)benzamide], for which the pest or weed control at 50 µg/cm2 in experiment [1] (setting [4]) and in experiment [3] (setting [5]) was 50 to 100% in each case. The YFM rating result in experiment [2] (Yellow Fever Mosquito) is reported as “A (80–100)”.

Take `O=C(Nc1ccc(F)cc1F)c1cc(NC(=O)[C@H]2[C@@H](c3cc(Cl)c(F)c(Cl)c3)C2(Cl)Cl)ccc1Cl` (relative stereo) [F1173, cis-2-Chloro-5-(2,2-dichloro-3-(3,5-dichloro-4-fluorophenyl)cyclopropane-1-carboxamido)-N-(2,4-difluorophenyl)benzamide]: the pest or weed control at 50 µg/cm2 in experiment [1] (setting [6]) and in experiment [3] (setting [8]) was 50 to 100% throughout. The YFM result in experiment [2] (setting [7]) is listed as “A (80–100)”.

`CN(C(=O)c1cc(NC(=O)[C@H]2[C@H](c3ccc(F)c(C(F)(F)F)c3)C2(Cl)Cl)ccc1Cl)c1ccc(F)c(NC(=O)COC(F)(F)F)c1F` [F1796, 2-Chloro-5-((1R,3R)-2,2-dichloro-3-(4-fluoro-3-(trifluoromethyl)phenyl)cyclopropane-1-carboxamido)-N-(2,4-difluoro-3-(2-(trifluoromethoxy)acetamido)phenyl)-N-methylbenzamide]: the pest or weed control at 50 µg/cm2 in experiment [1] (setting [4]) and in experiment [3] (setting [5]) was 50 to 100% throughout. The YFM rating result in experiment [2] (Yellow Fever Mosquito) is recorded as “A (80–100)”.

For the compound `O=C(Nc1ccc(F)c(NC(=O)C(F)F)c1F)c1cc(NC(=O)[C@H]2[C@H](c3cc(Cl)c(Cl)c(Cl)c3)C2(Cl)Cl)cc(F)c1F` [F1437, 5-((1R,3R)-2,2-Dichloro-3-(3,4,5-trichlorophenyl)cyclopropane-1-carboxamido)-N-(3-(2,2-difluoroacetamido)-2,4-difluorophenyl)-2,3-difluorobenzamide], the pest or weed control at 50 µg/cm2 in experiment [1] (setting [9]) and in experiment [3] (setting [11]) was 50 to 100% throughout. For the same compound, the YFM entry in experiment [2] (setting [10]) is “A (80–100)”.

As for `O=C(COC(F)(F)F)Nc1c(F)ccc(NC(=O)c2cc(NC(=O)[C@H]3[C@H](c4ccc(Cl)c(Cl)c4)C3(Cl)Cl)ccc2Cl)c1F` [F1766, 2-Chloro-5-((1R,3R)-2,2-dichloro-3-(3,4-dichlorophenyl)cyclopropane-1-carboxamido)-N-(2,4-difluoro-3-(2-(trifluoromethoxy)acetamido)phenyl)benzamide], the pest or weed control at 50 µg/cm2 in experiment [1] (setting [9]) and in experiment [3] (setting [11]) was 50 to 100% in each case. For the same compound, the YFM entry in experiment [2] (setting [10]) is “A (80–100)”.

Consider `CC(=O)Nc1c(F)ccc(NC(=O)c2cc(NC(=O)[C@H]3[C@H](c4cc(Cl)cc(Cl)c4)C3(Cl)Cl)cc(F)c2F)c1F` [F1439, N-(3-Acetamido-2,4-difluorophenyl)-5-((1R,3R)-2,2-dichloro-3-(3,5-dichlorophenyl)cyclopropane-1-carboxamido)-2,3-difluorobenzamide], for which the pest or weed control at 50 µg/cm2 in experiment [1] (setting [9]) and in experiment [3] (setting [11]) was 50 to 100% each time. Also, the YFM result in experiment [2] (setting [10]) was “A (80–100)”.

Regarding `O=C(COC(F)(F)F)Nc1c(F)ccc(NC(=O)c2cc(NC(=O)[C@H]3[C@H](c4cccc(C(F)(F)F)c4)C3(Cl)Cl)ccc2Cl)c1F` [F1774, 2-Chloro-5-((1R,3R)-2,2-dichloro-3-(3-(trifluoromethyl)phenyl)cyclopropane-1-carboxamido)-N-(2,4-difluoro-3-(2-(trifluoromethoxy)acetamido)phenyl)benzamide], the pest or weed control at 50 µg/cm2 in experiment [1] (setting [4]) and in experiment [3] (setting [5]) was 50 to 100% in each case. Besides, the YFM rating result in experiment [2] (Yellow Fever Mosquito) is “A (80–100)”.

As to `O=C(Nc1ccc(F)c(NC(=O)C(F)(F)C(F)F)c1F)c1cc(NC(=O)[C@H]2[C@H](c3ccc(Cl)c(Cl)c3)C2(Cl)Cl)ccc1Cl` [F1414, 2-Chloro-5-((1R,3R)-2,2-dichloro-3-(3,4-dichlorophenyl)cyclopropane-1-carboxamido)-N-(2,4-difluoro-3-(2,2,3,3-tetrafluoropropanamido)phenyl)benzamide], the pest or weed control at 50 µg/cm2 in experiment [1] (setting [9]) and in experiment [3] (setting [11]) was 50 to 100% in each case. In experiment [2] (setting [10]), the YFM entry is listed as “A (80–100)”.

With `CC(C)(C)OC(=O)Nc1c(F)ccc(NC(=O)c2cc(NC(=O)[C@H]3[C@H](c4ccc(Cl)c(C(F)(F)F)c4)C3(Cl)Cl)ccc2Cl)c1F` (relative stereo) [F1077, trans-tert-Butyl-(3-(2-chloro-5-(2,2-dichloro-3-(4-chloro-3-(trifluoromethyl)phenyl)cyclopropane-1-carboxamido)benzamido)-2,6-difluorophenyl)carbamate], the pest or weed control at 50 µg/cm2 in experiment [1] (setting [6]) and in experiment [3] (setting [8]) was 50 to 100% each time. The YFM entry in experiment [2] (setting [7]) is on record as “A (80–100)”.

In the case of `O=C(NNC(=O)c1cc(NC(=O)[C@H]2[C@H](c3cc(Cl)cc(Cl)c3)C2(Cl)Cl)ccc1Cl)OC(F)(F)F` (relative stereo) [F2543, trans-Trifluoromethyl 2-(2-chloro-5-(2,2-dichloro-3-(3,5-dichlorophenyl)cyclopropane-1-carboxamido)benzoyl)hydrazine-1-carboxylate], the pest or weed control at 50 µg/cm2 in experiment [1] (setting [4]) and in experiment [3] (setting [5]) was 50 to 100% throughout. Also, the YFM rating entry in experiment [2] (Yellow Fever Mosquito) is “A (80–100)”.

`O=C(Nc1ccc(F)c(NC(=O)C(F)(F)F)c1F)c1cc(NC(=O)[C@H]2[C@H](c3ccc(Cl)c(Br)c3)C2(Cl)Cl)ccc1Cl` (relative stereo) [F1358, trans-5-(3-(3-Bromo-4-chlorophenyl)-2,2-dichlorocyclopropane-1-carboxamido)-2-chloro-N-(2,4-difluoro-3-(2,2,2-trifluoroacetamido)phenyl)benzamide]: the pest or weed control at 50 µg/cm2 in experiment [1] (setting [6]) and in experiment [3] (setting [8]) was 50 to 100% in each case. In experiment [2] (setting [7]), the YFM result is recorded as “A (80–100)”.
